# Source: PubChem BioAssay (NCI)
#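 Interpolation was linear, between the two tested concentrations surrounding the appropriate level; five concentrations were tested over 48 hours in 96-well plates. GI50 is the concentration that inhibits growth by half. TGI is the concentration that stops growth completely.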
# Assays:
# Assay in all cases: NCI anticancer screen, dose series, 48 h
# 786-0 renal = system: 786-0 renal
# EKVX NSCLC = system: EKVX NSCLC
# HOP-92 NSCLC = system: HOP-92 NSCLC
# HT29 colon = system: HT29 colon
# KM12 colon = system: KM12 colon
# NCI-H460 lung = system: NCI-H460 lung
# SR leukemia = system: SR leukemia
# MDA-MB-231 breast = system: MDA-MB-231 breast
# NCI/ADR-RES ovarian = system: NCI/ADR-RES ovarian
# PC-3 prostate = system: PC-3 prostate
SMILES,TGI (786-0 renal),TGI (EKVX NSCLC),TGI (HOP-92 NSCLC),TGI (HT29 colon),TGI (KM12 colon),TGI (NCI-H460 lung),TGI (SR leukemia),GI50 (786-0 renal),GI50 (EKVX NSCLC),GI50 (KM12 colon),GI50 (MDA-MB-231 breast),TGI (MDA-MB-231 breast),GI50 (NCI-H460 lung),GI50 (NCI/ADR-RES ovarian),TGI (NCI/ADR-RES ovarian),GI50 (PC-3 prostate),TGI (PC-3 prostate),GI50 (SR leukemia),GI50 (HOP-92 NSCLC),GI50 (HT29 colon)
O=C(O)C[C@H]1CCCCC12CCOC2=O (stereo not given in full),> 100 µM,> 100 µM,> 100 µM,> 100 µM,> 100 µM,> 100 µM,> 100 µM,,,,,,,,,,,,,
Oc1ccc(O)c(-c2cn3ccsc3n2)c1,15 µM,35.8 µM,,,27.7 µM,31.4 µM,4.43 µM,4.04 µM,18.4 µM,12.5 µM,11.7 µM,33.7 µM,13.6 µM,12.9 µM,25.5 µM,10.1 µM,21.7 µM,1.48 µM,,
Cc1ccc2ncnc(N(CC(C)C)CC(C)C)c2c1,40 µM,,24 µM,,40 µM,49 µM,26.3 µM,18.5 µM,,16.4 µM,,,14.5 µM,10.4 µM,24.6 µM,11 µM,27.8 µM,7.76 µM,8.36 µM,
Cc1cccc2c1N(C(=O)/C=C\C(=O)O)C(c1c(C)[nH]c3ccccc13)C2 (stereo not given),> 100 µM,> 100 µM,82.4 µM,> 100 µM,> 100 µM,> 100 µM,> 100 µM,,,,,,,,,,,,,
NS(=O)(=O)c1ccc(NC2=CC(=O)C(=O)c3ccccc32)cc1,> 100 µM,> 100 µM,> 100 µM,> 100 µM,> 100 µM,> 100 µM,> 100 µM,,,,,,,,,,,,,
OCC(O)C(O)C(O)c1nn(-c2ccc(Cl)cc2)c2nc3cc(Cl)c(Cl)cc3nc12 (stereo not given),> 100 µM,67.9 µM,,> 100 µM,,> 100 µM,> 100 µM,,,,,,,,,,,,,
CCOC(=O)C1C2CCC(C2)C1(CCl)C(=O)OCC (stereo not given),> 100 µM,,> 100 µM,> 100 µM,,> 100 µM,> 100 µM,,,,,,,,,,,,,
Cc1ccc(NC(=O)C(=O)C(C#N)c2nc(-c3ccc(-c4ccccc4)cc3)cs2)c(C)c1 (stereo not given),> 100 µM,> 100 µM,> 1 µM,> 1 µM,,> 100 µM,> 100 µM,,,,,,,,,,,,,
O=C1c2ccccc2C(=O)N1CCN(CCN1C(=O)c2ccccc2C1=O)Cn1cccn1,> 100 µM,> 100 µM,> 100 µM,,> 100 µM,> 100 µM,,,,,,,,,,,,,,
O=C(c1ccccc1)N1C2CCC1C(C(F)(F)F)=C2C(F)(F)F,> 100 µM,> 100 µM,> 100 µM,> 100 µM,> 100 µM,> 100 µM,> 100 µM,,,,,,,,,,,,,
COc1c(C(=O)c2ccc([N+](=O)[O-])cc2)cc(C(C)(C)C)cc1C(C)(C)C,> 100 µM,> 100 µM,,88 µM,> 100 µM,> 100 µM,64.1 µM,,,,,,,,,,,,,
O=CNc1ncn[nH]1,> 100 µM,> 100 µM,,> 100 µM,> 100 µM,> 100 µM,> 100 µM,,,,,> 100 µM,,,> 100 µM,,> 100 µM,,,
NNC(=O)CNC(=O)c1ccc(Cl)cc1Cl,> 100 µM,> 100 µM,> 100 µM,> 100 µM,> 100 µM,> 100 µM,,,,,,,,,,,,,,
CCCCCCCCOCC(O)COC(=O)CCCCCCC (stereo not given),> 100 µM,,82.3 µM,> 100 µM,,> 100 µM,> 100 µM,,,,,,,,,,,,,
Cc1cc2c(cc1C)[n+](=O)c(C(=O)C/C(=N/OCCCc1ccccc1)C(=O)Nc1cc(Cl)ccc1Cl)c(C)n2[O-],> 100 µM,> 100 µM,,> 100 µM,> 100 µM,> 100 µM,,,,,,,,,,,,,,
N#Cc1c2c(c(N=P(c3ccccc3)(c3ccccc3)c3ccccc3)n3c1nc1ccccc13)CCCC2,> 100 µM,> 100 µM,,74.9 µM,> 100 µM,56.5 µM,,,,,,,,,,,,,,
COC(=O)C(CC(C)C)NC(=O)NC12CC3CC(CC(F)(C3)C1)C2 (stereo not given),> 100 µM,> 100 µM,> 100 µM,> 100 µM,> 100 µM,> 100 µM,,,,,,,,,,,,,,
COC(=O)C(C(=O)C(=O)Nc1nc(=S)[nH][nH]1)c1csc(-n2nc(-c3ccccc3)cc2-c2ccccc2)n1 (stereo not given),> 100 µM,> 100 µM,> 100 µM,> 100 µM,> 100 µM,> 100 µM,> 100 µM,,,,,,,,,,,,,
C=C(C)[C@@H]1CC[C@]2(C(=O)O)CC[C@]3(C)[C@H](CC[C@@H]4[C@@]5(C)C[C@@H](CC#Cc6ccc(C(F)(F)F)cc6)[C@H](O)C(C)(C)[C@@H]5CC[C@]43C)[C@@H]12,21.9 µM,> 100 µM,13.8 µM,> 100 µM,> 100 µM,> 100 µM,> 100 µM,3.2 µM,3.82 µM,2.78 µM,,,3.38 µM,47.3 µM,> 100 µM,,,3.23 µM,3.09 µM,3.01 µM

SMILES,TGI (786-0 renal),TGI (EKVX NSCLC),TGI (HOP-92 NSCLC),TGI (HT29 colon),TGI (KM12 colon),TGI (NCI-H460 lung),TGI (SR leukemia),GI50 (786-0 renal),GI50 (EKVX NSCLC),GI50 (KM12 colon),GI50 (MDA-MB-231 breast),TGI (MDA-MB-231 breast),GI50 (NCI-H460 lung),GI50 (NCI/ADR-RES ovarian),TGI (NCI/ADR-RES ovarian),GI50 (PC-3 prostate),TGI (PC-3 prostate),GI50 (SR leukemia),GI50 (HOP-92 NSCLC),GI50 (HT29 colon)
Clc1cccc(Cl)c1C1CSc2ccccc2N=C1c1ccccc1 (stereo not given),23 µM,,,8.64 µM,4.69 µM,15.6 µM,> 100 µM,10.7 µM,,2.15 µM,2.95 µM,14.1 µM,4.04 µM,4.14 µM,32 µM,5.6 µM,20.9 µM,3.42 µM,,3.17 µM
CCN(CC)CCOc1ccccc1/C=C/c1noc2ccccc12,26.7 µM,31.9 µM,,16 µM,31.5 µM,25.3 µM,68 µM,,,,,25.7 µM,,,38.8 µM,,19.8 µM,,,
CC[P+](C)(C)c1ccccc1,> 100 µM,> 100 µM,,> 100 µM,> 100 µM,> 100 µM,,,,,,,,,,,,,,
CC1C[C@H](C)CC(C(O)CC2CC(=O)N(Cc3ccccc3)C(=O)C2)C1O (stereo not given in full),> 100 µM,> 100 µM,> 100 µM,> 100 µM,> 100 µM,> 100 µM,> 100 µM,,,,,,,,,,,,,
CC1(C)C(O)C[C@@H](O)[C@@]2(C)C1CC[C@]1(C)C2C[C@@H](O)[C@@H]2C([C@@]3(C)CC[C@@H](C(C)(C)O)O3)CCC21C (stereo not given in full),30.1 µM,53.9 µM,23.5 µM,31.6 µM,30.6 µM,35.9 µM,> 100 µM,,,,,,,,,,,,,
CC(/C(=N\Nc1ccccc1)c1ccc(O)cc1)C1C(=O)Oc2ccccc21 (stereo not given),> 100 µM,> 100 µM,,> 100 µM,> 100 µM,> 100 µM,> 100 µM,,,,,,,,,,,,,
CNCc1cc(OC)ccc1-c1ccc(OC)c(OC)c1OC,> 100 µM,> 100 µM,> 100 µM,> 100 µM,> 100 µM,> 100 µM,> 100 µM,,,,,,,,,,,,,
O=C1c2nsnc2C(=O)c2c(F)c(F)c(F)c(F)c21,3.01 µM,,,0.715 µM,3.29 µM,2.34 µM,,1.63 µM,,1.4 µM,1.38 µM,2.78 µM,0.758 µM,1.63 µM,4.33 µM,1.51 µM,3.1 µM,0.0528 µM,,0.266 µM
CC1CC(=O)Nc2ccccc2N1C(=O)CN1CCC(CCCCN(C)C)CC1 (stereo not given),> 100 µM,> 100 µM,,> 100 µM,> 100 µM,> 100 µM,> 100 µM,,,,,,,,,,,,,
O=C1CCC2CC(C(=O)c3ccccc3)CCC2CN1 (stereo not given) (tested in a mixture with another compound),> 100 µM,> 100 µM,,> 100 µM,> 100 µM,> 100 µM,> 100 µM,,,,,,,,,,,,,
CCOC(=O)CSC(=O)NCCCl,> 100 µM,> 100 µM,> 100 µM,> 100 µM,> 100 µM,> 100 µM,> 100 µM,,,,,,,,,,,> 100 µM,,
CC1SC2=NC3=C(c4ccccc4C3=O)C(c3ccc(Cl)cc3)N2C1=O (stereo not given),> 100 µM,> 100 µM,> 100 µM,> 100 µM,> 100 µM,> 100 µM,,,,,,,,,,,,,,
CCCCCCCCCCCCCC(=O)OCC1OC(n2cc(F)c(=O)[nH]c2=O)C(NC(=O)OCc2ccccc2)C(OC(=O)CCCCCCCCCCCCC)C1O (stereo not given),> 100 µM,> 100 µM,> 100 µM,> 100 µM,> 100 µM,> 100 µM,> 100 µM,,,,,,,,,,,,,
CC1=NOC(=O)/C1=C/c1cccc2ccccc12,> 100 µM,> 100 µM,> 100 µM,> 100 µM,> 100 µM,> 100 µM,> 100 µM,,,,,,,,,,,,,
CC(=O)Nc1cc(N(CCOS(C)(=O)=O)CCOS(C)(=O)=O)ccc1N=O,> 100 µM,,> 100 µM,> 100 µM,> 100 µM,> 100 µM,> 100 µM,,,,,,,,,,,,,
COC(=O)/C(=N\Nc1nc(=S)[nH]n1N)C(C#N)c1ccccc1 (stereo not given),> 100 µM,> 100 µM,,> 100 µM,> 100 µM,> 100 µM,,,,,,,,,,,,,,
COc1ccc(C2CC(c3cc(C)ccc3O)=NC(N)=N2)cc1 (stereo not given),> 100 µM,> 100 µM,> 100 µM,> 100 µM,> 100 µM,> 100 µM,> 100 µM,,,,,,,,,,,,,
NC(N)=N/N=C/c1c(-c2cc(Cl)sc2Cl)nc2sccn12,1.79 µM,13.1 µM,,,2.75 µM,4.4 µM,2.68 µM,0.924 µM,3.72 µM,1.04 µM,0.751 µM,1.75 µM,1.43 µM,7.71 µM,15.4 µM,1.55 µM,6.15 µM,1.35 µM,,
